Data as given in ChEMBL document CHEMBL1123745, “Preparation and biological evaluation of a potential photoaffinity label for the prostaglandin H2/thromboxane A2 receptor” (J Med Chem, 1987).

How the values were obtained:
[1] = target: T1, Thromboxane A2 receptor (Homo sapiens) (UniProt P21731); assay: Ability to inhibit the U-46,619 (TXA2 agonist,3uM) induced aggregation in human platelets; range (5-20 uM); type: functional
T1 sequence (whole entry): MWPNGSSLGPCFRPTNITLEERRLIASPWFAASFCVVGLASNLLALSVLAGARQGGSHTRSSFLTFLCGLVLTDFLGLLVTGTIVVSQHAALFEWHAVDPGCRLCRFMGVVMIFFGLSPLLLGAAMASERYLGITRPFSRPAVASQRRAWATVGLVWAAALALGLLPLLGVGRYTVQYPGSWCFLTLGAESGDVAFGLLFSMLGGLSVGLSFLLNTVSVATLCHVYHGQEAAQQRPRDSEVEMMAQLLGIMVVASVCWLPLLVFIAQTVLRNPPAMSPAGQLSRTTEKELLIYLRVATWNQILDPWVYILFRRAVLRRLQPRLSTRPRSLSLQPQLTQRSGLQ

[2] = Ability to inhibit ADP (10 uM) induced aggregation in human platelet rich plasma (PRP) relative to 13-azaprostanoic acid; type: functional
[3] = Ability to inhibit U-46,619 (0.5 uM) induced aggregation in human platelet rich plasma (PRP) relative to 13-azaprostanoic acid; type: functional
Homo sapiens = species: Homo sapiens; assay: Inhibition of [3H]U-46619 binding in dark incubated platelets; type: functional
[4] = target: T1, Thromboxane A2 receptor (Homo sapiens); assay: Ability to inhibit the U-46,619 (TXA2 agonist, 3 uM); type: functional
[5] = target: T1, Thromboxane A2 receptor (Homo sapiens); assay: Ability to inhibit the U-46,619 (TXA2 agonist,3 uM) induced aggregation in human platelets was determined; type: functional
[6] = target: T1, Thromboxane A2 receptor (Homo sapiens); assay: Inhibition of UV-irridiated platelets relative to dark incubated platelets after irreversible inhibition of U-46,619 binding after photoactivation (p<0.02); conditions: concentration not given here

Row | Compound | ED50 [1] | also measured
1 | O=C(O)CCCCCCC1CCCC1NCCCOc1ccccc1 (stereo not given) | 20 µM | –
2 | O=C(O)CCCCCCC1CCCC1NCCCOc1ccc([N+](=O)[O-])cc1 (stereo in doubt) | 20 µM | –
3 | [N-]=[N+]=Nc1ccc(OCCCNC2CCCC2CCCCCCC(=O)O)cc1 (trans isomer) | 20 µM | Inhibition [2]: 50%; Inhibition [3]: 38%
4 | [N-]=[N+]=Nc1ccc(CCCNC2CCCC2CCCCCCC(=O)O)cc1 (trans isomer) [listing 1 of 2 here] | – | Inhibition [2]: 19%; Inhibition [3]: 63%
5 | [N-]=[N+]=Nc1ccc(CCCNC2CCCC2CCCCCCC(=O)O)cc1[127I] (trans isomer) | – | Inhibition [2]: 15%; Inhibition [3]: 81%; Ki (Homo sapiens): 0.29 µM
6 | O=C(O)CCCCCCC1CCCC1NCCCOc1ccc([N+](=O)[O-])cc1 (trans isomer) | 20 µM | –
7 | O=C(O)CCCCCCC1CCCC1NCCCOc1ccccc1 (trans isomer) | – | ED50 [4]: 20 µM
8 | [N-]=[N+]=Nc1ccc(CCCNC2CCCC2CCCCCCC(=O)O)cc1I (trans isomer) | – | ED50 [5]: 2 µM; inhibition [6]: 38%

Continued, in another order:

Row | ED50 [1] | Compound | also measured
9 | 20 µM | O=C(O)CCCCCCC1CCCC1NCCCc1ccc([N+](=O)[O-])cc1 (cis isomer) | –
10 | 20 µM | [N-]=[N+]=Nc1ccc(CCCNC2CCCC2CCCCCCC(=O)O)cc1 (cis isomer) | –
11 | 20 µM | Nc1ccc(CCCNC2CCCC2CCCCCCC(=O)O)cc1 (trans isomer) | –
12 | 20 µM | Nc1ccc(OCCCNC2CCCC2CCCCCCC(=O)O)cc1 (trans isomer) | –
13 | 20 µM | O=C(O)CCCCCCC1CCCC1NCCCc1ccc([N+](=O)[O-])cc1 (trans isomer) | –
14 | 20 µM | [N-]=[N+]=Nc1ccc(CCCNC2CCCC2CCCCCCC(=O)O)cc1 (trans isomer) [listing 2 of 2 here] | –
